From patent publication US20240010726A1, “LFA-1 SIGNALLING MEDIATOR FOR USE IN CANCER THERAPY” (Universität Basel, priority 2020, published 2024)

Experiments:
human naïve CD8 T cells = assay: Metabolic flux analysis, glycolytic switch of naïve CD8 T cells; format: cell-based; conditions: anti-CD3 or anti-CD3/anti-CD28 Ab; 0 mM vs 1.2 mM Mg^2+
Experimental: FIG. 2: Extracellular magnesium promotes memory-specific activation via LFA-1. Glycolytic switch of human EM CD8 T cells (a) and naïve CD8 T cells (b) subsets upon injection of anti-CD3 Ab only, or anti-CD3 and anti-CD28 Ab, was assessed by metabolic flux analysis in medium containing either 1.2 mM Mg^2+, 0 mM Mg^2+, or medium which was reconstituted from 0 mM to 1.2 mM Mg^2+ immediately prior to activation (0→1.2 mM Mg^2+). (a) Results for human effector memory (EM) and (b) for human naïve CD8 T cells. Glycolytic switch was quantified by subtracting […] measurements. (c) Flow cytometric analysis of surface activation markers on human EM CD8 T cells 24 hours after activation by plate-bound anti-CD3 Ab and soluble anti-CD28 Ab, in 1.2 mM and 0 mM Mg^2+ media, respectively. (d) Abundance of inflammatory cytokines in corresponding EM CD8 T cell culture supernatants, determined by CBA. (e) CD11a (LFA-1) surface expression on human naïve and EM CD8 T cells as well PHA T cell blasts. Flow cytometry-based assessment of total LFA-1 expression assessed by mAb TS2/4 (f), closed conformation of αL by mAb HI111 (g), extended conformation of LFA-1 by mAb Kim127 (h), open head-piece conformation of LFA-1 by mAb m24 (i), phosphorylation of focal adhesion kinase (FAK) […] as well TNF expression (k)±TCR-induced activation in different extracellular Mg^2+ concentrations. […]

human EM CD8 T cells = assay: Flow cytometry of surface activation markers on EM CD8 T cells; format: cell-based; conditions: 24 h plate-bound anti-CD3 and soluble anti-CD28 Ab; 0 mM vs 1.2 mM Mg^2+
Experimental: FIG. 2: Extracellular magnesium promotes memory-specific activation via LFA-1. Glycolytic switch of human EM CD8 T cells (a) and naïve CD8 T cells (b) subsets upon injection of anti-CD3 Ab only, or anti-CD3 and anti-CD28 Ab, was assessed by metabolic flux analysis in medium containing either 1.2 mM Mg^2+, 0 mM Mg^2+, or medium which was reconstituted from 0 mM to 1.2 mM Mg^2+ immediately prior to activation (0→1.2 mM Mg^2+). (a) Results for human effector memory (EM) and (b) for human naïve CD8 T cells. Glycolytic switch was quantified by subtracting […] measurements. (c) Flow cytometric analysis of surface activation markers on human EM CD8 T cells 24 hours after activation by plate-bound anti-CD3 Ab and soluble anti-CD28 Ab, in 1.2 mM and 0 mM Mg^2+ media, respectively. (d) Abundance of inflammatory cytokines in corresponding EM CD8 T cell culture supernatants, determined by CBA. (e) CD11a (LFA-1) surface expression on human naïve and EM CD8 T cells as well PHA T cell blasts. Flow cytometry-based assessment of total LFA-1 expression assessed by mAb TS2/4 (f), closed conformation of αL by mAb HI111 (g), extended conformation of LFA-1 by mAb Kim127 (h), open head-piece conformation of LFA-1 by mAb m24 (i), phosphorylation of focal adhesion kinase (FAK) […] as well TNF expression (k)±TCR-induced activation in different extracellular Mg^2+ concentrations. (l) Flow cytometry-based assessment of LFA-1 with open-head piece conformation on human EM and naïve CD8 T cells using the open head-piece reporter mAb m24. (m) Assessment of glycolytic switch of EM CD8 T cells. (n) Assessment of glycolytic switch of naïve CD8 T cells. […] Naïve CD8 T cells were activated with in house generated anti-CD3/anti-CD28 coated microbeads. Polybead microspheres ([…], Polyscience […]) were incubated with 1 μg anti-CD3 Ab and 10 μg anti-CD28 Ab. […] Primary human T cells were activated for 24 h and PHA-blasts for 4 h. For analysis of surface markers, T cells were harvested at indicated time points, washed once in cold PBS and, if required, stained with Fixable Viability Dyes for 15 min at 4° C. Surface markers were stained with appropriate antibodies for 20 min at 4° C.

[Mg+2] [Mg^2+, Magnesium]
Glycolytic switch (ECAR) of naïve CD8 T cells (human naïve CD8 T cells): no impaired activation-induced upregulation of glycolysis | CD25 surface expression (human EM CD8 T cells): failed to upregulate | CD69 surface expression (human EM CD8 T cells): failed to upregulate | CD71 surface expression (human EM CD8 T cells): failed to upregulate | CD98 surface expression (human EM CD8 T cells): failed to upregulate | CD107a surface expression (degranulation) (human EM CD8 T cells): failed to upregulate
